# Measurements reported in patent publication US11554188B2, “Anti-viral dry cleaning process” ([…], LLC, priority 2020, dated 2023).
# Where “and” joins values, the source holds several entries; their conditions need not be identical. Equal values may be shown once. Read-outs that look alike come from different tables or passages of the source.
# Assays:
# Assay type in all cases: cell-based
# [1] = test system: SARS-CoV-2 strain USA-WA1/2020; details: Silicone wash, and spin cycle, time 45 min
# [2] = test system: SARS-CoV-2 strain USA-WA1/2020; details: for Averaged Test Sample Percent Log Reduction to Averaged Virus Controls: averaged over 15, 30, 45 min
# [3] = test system: SARS-CoV-2 strain USA-WA1/2020; assay: Drying cycle and washing cycle combined test results (complete dry cleaning process); details: for Averaged Test Sample Percent Log Reduction of complete dry cleaning process: wash/spin results combined with heat, liquid and vapor results
# From the text: Data shown in Table 2 represents the individual dry cleaning process percent log reduction to the control samples for each coupon set at each process time, and averaged percent reduction of each process on viral deactivation. The silicone wash and spin rinse tests were combined with the heat, silicone liquid, and vapor exposure process results to define the overall percent viral reduction of the complete dry cleaning process. A plot showing the percent log reduction efficacy of each of the simulated dry cleaning processes and the total process in deactivating SARS-CoV-2 infected wool blend fabric material is shown in FIG. 2.
# This testing was conducted to provide an accurate simulation of patented dry cleaning process in a laboratory environment.
# It should be noted, that in one simulation of the drying cycle, the combination of heat, vapor, and liquid condition produced a percent log reduction to virus control of 98.00%.
# [4] = Heat + Liquid + Vapor, 70° C., 15 min
# [5] = Heat + Liquid + Vapor, 70° C., 30 min
# [6] = Heat + Liquid + Vapor, 70° C., 45 min
# [7] = Heat + Silicone Liquid, 70° C., 15 min
# [8] = Heat + Silicone Liquid, 70° C., 30 min
# [9] = Heat + Silicone Liquid, 70° C., 45 min
# [10] = Heat + Silicone Vapor, 70° C., 15 min
# [11] = Heat + Silicone Vapor, 70° C., 30 min
# [12] = Heat + Silicone Vapor, 70° C., 45 min
# [13] = samples G5-15 (condition cell blank; heat + liquid + vapor per Table 2), 15 min
# [14] = samples G5-30 (condition cell blank; heat + liquid + vapor per Table 2), 30 min
# [15] = samples G5-45 (condition cell blank; heat + liquid + vapor per Table 2), 45 min
# [16] = Complete cycle - silicone wash, spin, heat and vapor, time 45 min
# [17] = Silicone wash, and spin cycle, time 45 min
smiles,measurement,setting,value
"C[Si]1(C)O[Si](C)(C)O[Si](C)(C)O[Si](C)(C)O[Si](C)(C)O1 [D5, decamethylcyclopentasiloxane]",Average of Test Replicates TCID50,"[1]; 89 mL, 35 RPM 16 min, spin 500 rpm 4 min",35138.40
same,Average of Test Replicates Log10 TCID50,[1],4.54
same,Averaged Test Sample Percent Log Reduction of complete dry cleaning process,[1],56.18%
same,Log10 Reduction to virus control,[1],0.36
same,Percent Log Reduction to Virus Control,[1],56.18%
same,Percent Log Reduction to Virus Control,[1]; listed as Silicone,56.18%
same,TCID50 (individual sample),"[2]; D5 Liquid Only Control, 45 min",31.62
same,Avg TCID50,"[2]; Heat & D5 Liquid, 15 min",789.8
same,TCID50 (individual sample),"[2]; Heat & D5 Liquid, 15 min",316.2 and 794.3 and 1258.9254
same,Avg TCID50,"[2]; Heat & D5 Liquid, 30 min",1125
same,TCID50 (individual sample),"[2]; Heat & D5 Liquid, 30 min",879.9254 and 501.2 and 1995.2623
same,Avg TCID50,"[2]; Heat & D5 Liquid, 45 min",1590
same,TCID50 (individual sample),"[2]; Heat & D5 Liquid, 45 min",1258.9254 and 1415.1212 and 2096.18
same,Avg TCID50,"[2]; Heat & D5 Vapor, 15 min",3389.8041
same,TCID50 (individual sample),"[2]; Heat & D5 Vapor, 15 min",1995.2623 and 5011.8723 and 3162.2777
same,Avg TCID50,"[2]; Heat & D5 Vapor, 30 min",2510
same,TCID50 (individual sample),"[2]; Heat & D5 Vapor, 30 min",5011.8723 and 1258.9254 (2×)
same,Avg TCID50,"[2]; Heat & D5 Vapor, 45 min",2983
same,TCID50 (individual sample),"[2]; Heat & D5 Vapor, 45 min",3162.2777 and 3690.622 and 2096.18
same,Average of Test Replicates Log10 TCID50,[2]; [4],1.98
same,Average of Test Replicates TCID50,[2]; [4],94.92
same,Log10 Reduction to virus control,[2]; [4],1.70
same,Percent Log Reduction to Virus Control,[2]; [4],98.00%
same,Percent Log Reduction to Virus Control,"[2]; Heat + Liquid + Vapor, 70° C., 15 min, listed as Silicone",98.00%
same,Average of Test Replicates Log10 TCID50,[2]; [5],2.14
same,Average of Test Replicates TCID50,[2]; [5],138.31
same,Log10 Reduction to virus control,[2]; [5],1.54
same,Percent Log Reduction to Virus Control,[2]; [5],97.09%
same,Average of Test Replicates Log10 TCID50,[2]; [6],2.37
same,Average of Test Replicates TCID50,[2]; [6],232.01
same,Log10 Reduction to virus control,[2]; [6],1.31
same,Percent Log Reduction to Virus Control,[2]; [6],95.12%
same,Averaged Test Sample Percent Log Reduction to Averaged Virus Controls,"[2]; Heat + Liquid + Vapor, 70° C.",approximately 96.7%
same,Averaged Test Sample Percent Log Reduction to Averaged Virus Controls,"[2]; Heat + Liquid + Vapor, 70° C., listed as Silicone",96.74%
same,Average of Test Replicates Log10 TCID50,[2]; [7],2.90
same,Average of Test Replicates TCID50,[2]; [7],789.83
same,Log10 Reduction to virus control,[2]; [7],0.78
same,Percent Log Reduction to Virus Control,[2]; [7],83.39%
same,Average of Test Replicates Log10 TCID50,[2]; [8],3.05
same,Average of Test Replicates TCID50,[2]; [8],1125.46
same,Log10 Reduction to virus control,[2]; [8],0.63
same,Percent Log Reduction to Virus Control,[2]; [8],76.34%
same,Average of Test Replicates Log10 TCID50,[2]; [9],3.20
same,Average of Test Replicates TCID50,[2]; [9],1590.08
same,Log10 Reduction to virus control,[2]; [9],0.48
same,Percent Log Reduction to Virus Control,[2]; [9],66.57%
same,Averaged Test Sample Percent Log Reduction to Averaged Virus Controls,"[2]; Heat + Silicone Liquid, 70° C.",approximately 75.4%
same,Averaged Test Sample Percent Log Reduction to Averaged Virus Controls,"[2]; Heat + Silicone Liquid, 70° C., listed as Silicone",75.43%
same,Average of Test Replicates Log10 TCID50,[2]; [10],3.53
same,Average of Test Replicates TCID50,[2]; [10],3389.80
same,Log10 Reduction to virus control,[2]; [10],0.15
same,Percent Log Reduction to Virus Control,[2]; [10],28.72%
same,Average of Test Replicates Log10 TCID50,[2]; [11],3.40
same,Average of Test Replicates TCID50,[2]; [11],2509.91
same,Log10 Reduction to virus control,[2]; [11],0.28
same,Percent Log Reduction to Virus Control,[2]; [11],47.23%
same,Average of Test Replicates Log10 TCID50,[2]; [12],3.47
same,Average of Test Replicates TCID50,[2]; [12],2983.03
same,Log10 Reduction to virus control,[2]; [12],0.20
same,Percent Log Reduction to Virus Control,[2]; [12],37.28%
same,Averaged Test Sample Percent Log Reduction to Averaged Virus Controls,"[2]; Heat + Silicone Vapor, 70° C.",37.74%
same,Average of Test Replicates Log10 TCID50,"[2]; Silicone Liquid Control, room temperature (23° C.), 45 min",1.50
same,Average of Test Replicates TCID50,"[2]; Silicone Liquid Control, room temperature (23° C.), 45 min, wool blend coupons",31.62
same,Avg TCID50,[2]; [13],91.92
same,TCID50 (individual sample),[2]; [13],79.43 (2×) and 125.9
same,Avg TCID50,[2]; [14],138.3
same,TCID50 (individual sample),[2]; [14],209.618 and 79.43 and 125.9
same,Avg TCID50,[2]; [15],232.1
same,TCID50 (individual sample),[2]; [15],125.9 (2×) and 444.2
same,Average of Test Replicates Log10 TCID50,[3]; [16],4.54
same,Average of Test Replicates TCID50,[3]; [16],35138.40
same,Averaged Test Sample Percent Log Reduction of complete dry cleaning process,"[3]; Complete cycle - silicone wash, spin, heat and vapor",approximately 98.6%
same,Averaged Test Sample Percent Log Reduction of complete dry cleaning process,"[3]; Complete cycle - silicone wash, spin, heat and vapor, listed as Silicone",98.57%
same,Log10 Reduction to virus control,[3]; [17],0.36
same,Percent Log Reduction to Virus Control,[3]; [17],56.18%
same,optimized calculated log reduction to the average virus controls,"[3]; serial combination of 56.18% wash cycle reduction and 98.00% drying cycle reduction (heat, vapor, liquid)",99.12%
